According to patent US20260317347A1, “MACROCYCLIC COMPOUNDS AND THERAPEUTIC USES THEREOF” (SUNRISE ONCOLOGY (HONG KONG) LIMITED, priority 2023, published 2026):
“Also recorded” adds a separate entry of the source.

Experiments:
[1] = molecular target: HRAS WT GTP + RAF1 + CYPA (Homo sapiens, UniProt P01112+P62937); assay: Ras: RAF1 HTRF Assay (RAS-GTP & Raf disruption); assay type: biochemical; settings: 1 h incubation, room temperature
Method: (§1) This example is to verify the binding between RAS protein and its interacting protein (SOS1 or RAF1). When RAS exists with SOS1 or RAF, the two interact to make the energy donor and receptor bound to it close enough, and then when the donor is excited by an external light source, energy resonance transfer occurs, thereby exciting the receptor and emitting a specific wavelength of emitted light, the FRET signal is detected.
(§2) Specific experimental methods: 20 nM purified RAS protein (e.g. KRAS-G12D, G12V, G12C, WT; NRAS-WT) was incubated with the drug to be screened (the drug was diluted in a 3-fold gradient to a final concentration of 1000 nM) at room temperature for 1 h. Subsequently, 30 nM purified SOS1-Cat was added and incubated at room temperature for 0.5-1 h. After adding the detection antibody (PerkinElmer, Cisbio, HTRF antibody), the value was measured according to the manufacturer's instructions.

[2] = molecular target: KRAS G12C GTP + RAF1 + CYPA (Homo sapiens, UniProt P01116+P62937, G12C); assay: Ras: RAF1 HTRF Assay (RAS-GTP & Raf disruption); assay type: biochemical; settings: 1 h incubation, room temperature
Chain of KRAS G12C GTP + RAF1 + CYPA (P01116 1-188 isoform P01116-2 G12C): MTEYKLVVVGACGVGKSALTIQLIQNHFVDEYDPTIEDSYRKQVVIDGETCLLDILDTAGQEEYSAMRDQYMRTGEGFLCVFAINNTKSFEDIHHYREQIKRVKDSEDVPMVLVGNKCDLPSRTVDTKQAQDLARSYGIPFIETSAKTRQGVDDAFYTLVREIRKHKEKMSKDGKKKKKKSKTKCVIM
Chain of KRAS G12C GTP + RAF1 + CYPA (P62937 whole entry): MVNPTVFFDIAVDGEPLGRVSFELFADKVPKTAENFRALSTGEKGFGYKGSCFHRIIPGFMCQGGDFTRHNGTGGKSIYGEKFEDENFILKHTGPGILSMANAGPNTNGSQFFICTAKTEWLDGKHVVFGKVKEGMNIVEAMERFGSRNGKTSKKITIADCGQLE
Method: as §1, §2

[3] = molecular target: KRAS G12D GTP + RAF1 + CYPA (Homo sapiens, UniProt P01116+P62937, G12D); assay: Ras: RAF1 HTRF Assay (RAS-GTP & Raf disruption); assay type: biochemical; settings: 1 h incubation, room temperature
Chain of KRAS G12D GTP + RAF1 + CYPA (P01116 1-188 isoform P01116-2 G12D): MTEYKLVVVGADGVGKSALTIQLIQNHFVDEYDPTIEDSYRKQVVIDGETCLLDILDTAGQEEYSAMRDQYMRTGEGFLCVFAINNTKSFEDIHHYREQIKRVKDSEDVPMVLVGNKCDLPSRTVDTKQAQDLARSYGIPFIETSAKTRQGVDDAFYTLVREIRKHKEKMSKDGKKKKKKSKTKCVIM
Chain of KRAS G12D GTP + RAF1 + CYPA (P62937 whole entry): as the sequence (P62937 whole entry) above
Method: as §1, §2

[4] = molecular target: KRAS G12R GTP + RAF1 + CYPA (Homo sapiens, UniProt P01116+P62937, G12R); assay: Ras: RAF1 HTRF Assay (RAS-GTP & Raf disruption); assay type: biochemical; settings: 1 h incubation, room temperature
Chain of KRAS G12R GTP + RAF1 + CYPA (P01116 1-188 isoform P01116-2 G12R): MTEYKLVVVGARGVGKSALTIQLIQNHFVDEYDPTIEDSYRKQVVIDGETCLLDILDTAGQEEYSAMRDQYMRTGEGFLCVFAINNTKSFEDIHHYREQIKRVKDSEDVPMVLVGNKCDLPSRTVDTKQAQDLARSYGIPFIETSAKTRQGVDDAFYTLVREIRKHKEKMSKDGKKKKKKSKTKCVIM
Chain of KRAS G12R GTP + RAF1 + CYPA (P62937 whole entry): as the sequence (P62937 whole entry) above
Method: as §1, §2

[5] = molecular target: KRAS G12V GTP + RAF1 + CYPA (Homo sapiens, UniProt P01116+P62937, G12V); assay: Ras: RAF1 HTRF Assay (RAS-GTP & Raf disruption); assay type: biochemical; settings: 1 h incubation, room temperature
Chain of KRAS G12V GTP + RAF1 + CYPA (P01116 1-188 isoform P01116-2 G12V): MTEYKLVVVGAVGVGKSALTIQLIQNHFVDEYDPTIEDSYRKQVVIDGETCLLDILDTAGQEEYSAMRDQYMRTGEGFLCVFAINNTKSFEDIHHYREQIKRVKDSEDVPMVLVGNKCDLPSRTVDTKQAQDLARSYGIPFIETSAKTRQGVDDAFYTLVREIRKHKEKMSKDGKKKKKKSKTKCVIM
Chain of KRAS G12V GTP + RAF1 + CYPA (P62937 whole entry): as the sequence (P62937 whole entry) above
Method: as §1, §2

[6] = molecular target: KRAS G12S GTP + RAF1 + CYPA (Homo sapiens, UniProt P01116+P62937, G12S); assay: Ras: RAF1 HTRF Assay (RAS-GTP & Raf disruption); assay type: biochemical; settings: 1 h incubation, room temperature
Chain of KRAS G12S GTP + RAF1 + CYPA (P01116 1-188 isoform P01116-2 G12S): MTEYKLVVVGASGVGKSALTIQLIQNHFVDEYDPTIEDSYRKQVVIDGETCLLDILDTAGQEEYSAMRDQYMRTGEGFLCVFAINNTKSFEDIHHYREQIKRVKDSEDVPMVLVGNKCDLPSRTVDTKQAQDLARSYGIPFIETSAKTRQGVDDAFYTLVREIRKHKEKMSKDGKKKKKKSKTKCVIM
Chain of KRAS G12S GTP + RAF1 + CYPA (P62937 whole entry): as the sequence (P62937 whole entry) above
Method: as §1
as §2, with “Subsequently, 30 nM purified SOS1-Cat was added and incubated at room temperature for 0.5-1 h.” left out

[7] = molecular target: KRAS Q61H GTP + RAF1 + CYPA (Homo sapiens, UniProt P01116+P62937, Q61H); assay: Ras: RAF1 HTRF Assay (RAS-GTP & Raf disruption); assay type: biochemical; settings: 1 h incubation, room temperature
Chain of KRAS Q61H GTP + RAF1 + CYPA (P01116 1-188 isoform P01116-2 Q61H): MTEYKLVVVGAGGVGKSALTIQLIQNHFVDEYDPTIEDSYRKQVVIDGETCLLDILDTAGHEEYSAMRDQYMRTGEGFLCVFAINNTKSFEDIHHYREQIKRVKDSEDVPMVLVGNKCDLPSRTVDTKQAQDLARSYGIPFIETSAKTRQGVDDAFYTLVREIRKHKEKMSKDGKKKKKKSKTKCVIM
Chain of KRAS Q61H GTP + RAF1 + CYPA (P62937 whole entry): as the sequence (P62937 whole entry) above

[8] = system: RAF1 with active KRAS mutant protein or HRAS WT protein; assay: Ras: RAF1 HTRF Assay, overall statement; assay type: biochemical; settings: in words; FIG. 1
A375 (BRAF V600E) cells = assay: Cell Viability Assay (MTS); assay type: cell-based; settings: RAS-independent, 5 days, FIG. 2
Text: (§3) Selective screening using RAS-driven and RAS-non-driven cells: (1) RAS-driven cells, including cells with persistent RAS activation due to RAS mutations and upstream EGFR activation. Cells that are continuously activated due to RAS mutations, such as KRAS G12D (AsPC-1, HPAC, etc.) mutant cells, KRAS G12C (NCI-H358, MIAPaCa-2, etc.) KRAS G13D (LOVO, HCT15, etc.) mutant cells, etc. Cells with continuous activation of RAS due to EGFR mutations, such as EGFREx19del (PC-9, etc.) mutant cells, EGFRT790M/L858R (NCI-H1975, etc.) mutant cells, etc.; (2) Non-RAS driven cells, including BRAFV600E (A375, SK)-MEL-3, etc.) mutant cells, RASWT (BxPC-3, etc.) cells, etc.
(§4) Specific experimental methods: The above cells were seeded in a 96-well plate at a density of 1000-10000 per well. Drugs were diluted in DMSO to make a 10 mM stock solution. Subsequently, the drug was diluted in a 3-fold gradient to a final concentration of 1000 nM. The cells were treated with the drug for 5 days. Cell viability was then detected by the MTS method.

AGS (KRAS G12D) cells = assay: Cell Viability Assay (MTS); assay type: cell-based; settings: 5 days, FIG. 2
Text: as §3, §4

HepG2 (NRAS Q61L) cells = assay: Cell Viability Assay (MTS); assay type: cell-based; settings: 5 days, FIG. 2
Text: as §3, §4

LOVO (KRAS G13D) cells = assay: Cell Viability Assay (MTS); assay type: cell-based; settings: 5 days, FIG. 2
Text: as §3, §4

[9] = system: NCI-H1975 (EGFR T790M/L858R) cells; assay: Cell Viability Assay (MTS); assay type: cell-based; settings: 5 days, FIG. 2
Text: as §3, §4

SW620 (KRAS G12V) cells = assay: Cell Viability Assay (MTS); assay type: cell-based; settings: 5 days, FIG. 2
Text: as §3, §4

RAS dependent cells = assay: Cell Viability Assay (MTS), overall statement; assay type: cell-based; settings: FIG. 2
Text: as §3, §4

Chain of HRAS WT GTP + RAF1 + CYPA (P01112 whole entry): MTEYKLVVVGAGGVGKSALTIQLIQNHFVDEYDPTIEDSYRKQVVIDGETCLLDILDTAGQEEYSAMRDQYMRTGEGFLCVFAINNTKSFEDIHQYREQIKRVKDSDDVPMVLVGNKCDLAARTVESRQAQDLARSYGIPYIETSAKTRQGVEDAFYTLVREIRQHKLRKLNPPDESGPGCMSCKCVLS
Chain of HRAS WT GTP + RAF1 + CYPA (P62937 whole entry): as the sequence (P62937 whole entry) above

SMILES: CCn1c(-c2cc(P(C)(C)=O)ccc2[C@H](C)OC)c2c3cc(ccc31)-c1cc(O)cc(c1)C[C@H](NC(=O)[C@H](C(C)C)N(C)C(=O)[C@@H]1OCC[C@@H]1c1ccccc1)C(=O)N1CCC[C@H](N1)C(=O)OCC(C)(C)C2 [Example 2, (2R,3R)—N-((2S)-1-(((6^3S,4S)-1^2-(5-(dimethylphosphoryl)-2-((S)-1-methoxyethyl)phenyl)-1^1-ethyl-2^5-hydroxy-10,10-dimethyl-5,7-dioxo-6^1,6^2,6^3,6^4,6^5,6^6-hexahydro-1^1H-8-oxa-1(5,3)-indola-6(1,3)-pyridazina-2(1,3)-benzenacycloundecaphane-4-yl)amino)-3-methyl-1-oxobutan-2-yl)-N-methyl-3-phenyltetrahydrofuran-2-carboxamide]
- IC50 [1]: 467.8 ± 4.6 nM
- IC50 [2]: 15.8 ± 3.97 nM
- IC50 [3]: 55.9 ± 8.92 nM
- IC50 [4]: 729 ± 106 nM
- IC50 [5]: 165 ± 7.92 nM
- IC50 [6]: 19.6 ± 1.03 nM
- IC50 [7]: 31.24 ± 0.3 nM
- inhibition of the interaction of RAF1 with active KRAS mutant protein or HRAS WT protein [8]: potently inhibited; also recorded: significantly inhibited
- inhibition of cell viability (A375 (BRAF V600E) cells): relative insensitive
- inhibition of cell viability (AGS (KRAS G12D) cells): significantly inhibited
- inhibition of cell viability (HepG2 (NRAS Q61L) cells): significantly inhibited
- inhibition of cell viability (LOVO (KRAS G13D) cells): significantly inhibited
- inhibition of cell viability [9]: significantly inhibited
- inhibition of cell viability (SW620 (KRAS G12V) cells): significantly inhibited
- inhibition of cell viability (RAS dependent cells): potently inhibited
